Experimental data taken from patent US20020110808A1, “Toxicant-induced differential gene expression” (priority 2000, published 2002).

How the values were obtained:
HepG2 cells [1] = experiment: Dot blot array expression assay
Method: The quality of the PCR reactions was assessed by agarose gel electrophoresis. Human genomic DNA (Clontech) and PCR products were robotically dotted in 100 nl aliquots onto positively-charged nylon membranes using the BioDot instrument (Cartesian Technologies, Inc.). After uv-crosslinking, the membranes were rinsed in 2× SSC and allowed to air-dry. Prior to addition of labeled cDNA probes, membranes were washed in boiling 1% SDS, rinsed with 6× SSC, and incubated in 5 mL of 42° C. Microhyb solution (Research Genetics) for 2 hr. Ten minutes prior to addition of the probes, the Microhyb solution was replaced with an equal amount of fresh 42° C. Microhyb solution containing denatured human Cot-1 DNA (Gibco BRL) and poly(dA) primer (Research Genetics) (both at final concentrations of 1 ng/μl).
For each reverse transcription reaction, 2 μg of mRNA was incubated with oligo(dT) primer (200 ng/μl) at 70° C. for 10 minutes. Tubes were chilled and spun briefly. The following reagents (with the final concentrations in parentheses) were added: first strand buffer (1×), DTT (10 mM), dNTP mix (1 mM each of dATP, dGTP, dTTP), [α-^33P]dCTP (3.3 μCi/μl) and Superscript II Reverse Transcriptase (10 units/μL). The samples were kept at 37° C. for 1.5 hr. Unincorporated nucleotides were removed by spinning the reaction mixture through a G-50 column. […] Probe quality was assessed by electrophoresis on a 10% denaturing polyacrylamide minigel. Denatured probes were added directly to the Microhyb solution and hybridized overnight at 42° C. Membranes were washed twice under each of the following conditions: (1) 2× SSC/0.1% SDS at room temperature, 5 min; (2) 0.2× SSC/0.1% SDS at room temperature, 5 min; (3) 0.2× SSC/0.1% SDS at 42° C., 15 min, (4) 0.1× SSC/0.1% SDS at 68° C., 15 min. Membranes were then rinsed briefly in 2× SSC at room temperature, covered with Saran wrap, and exposed to storage phoshpor screens. After three days, screens were scanned using a Storm phosphorimager (Molecular Dynamics). Images were analyzed using ImageQuant software (Molecular Dynamics).
We employed a rapid dot blot assay as a secondary screen for gene expression changes. We tested each of the unique clones against each of the three treatments. […] For these clones, the dot blot assay functioned not as a confirmation assay but as an initial screen for differential expression. Dot blots were prepared by robotically arraying subclone-derived PCR products in quadruplicate onto positively charged nylon membranes. […] In general, each dot consisted of over 80 ng of PCR product, as estimated by inspection of the PCR reactions run on agarose gels. This high quantity of DNA ensured that saturation of spots, with consequent loss of quantitation, would not occur. Spots of genomic DNA were included on each filter to allow normalization between control and treated sample intensities.

HepG2 cells [2] = experiment: cDNA array (GF200) expression profiling; format: cell-based, human
Method: Cells were grown in DMEM/F12 medium with 10% fetal bovine serum in tissue culture flasks for 3 days following splitting, at which time they were at or near confluency. […] For each treated sample, an untreated control flask was set up with the same medium. Following the treatment period, mRNA was isolated by affinity purification on oligo(dT) cellulose resin using the Poly(A) Pure mRNA isolation kit from Ambion. RNA quality was assessed by agarose gel electrophoresis, and yields were determined by absorbance at 260 nm.
Radiolabeled cDNA for array hybridizations were prepared as follows. To a solution of 2 μg of RNA in 8 μl DEPC-treated water was added 2 μl of 1 μg/μl oligo(dT) (10-20 mer mixture, Research Genetics). After incubation for 10 min at 70° C., the solution was chilled on ice for 2 min, and then added to 6 μl of 5× first strand buffer (250 mM Tris-HCl (pH 8.3), 375 mM KCl, 15 mM MgCl2; Gibco-BRL), 1 μl of 0.1M DTT, 1.5 μl dNTP mix (20 mM each dATP, dGTP and dTTP), 10 μl of 10 mCi/ml [α-^33P]dCTP (1000 Ci/mmol, Amersham), and 1.5 μl of 200 U/μl reverse transcriptase (Superscript II, Gibco-BRL). Following a 90 min incubation at 37° C., cDNA targets were purified by passage through G-50 Sephadex spin columns (Pharmacia) or Bio-Spin 6 columns (BioRad).
GF200 cDNA arrays (Research Genetics) were washed in 0.5% boiling SDS for 5 min and prehybridized for 3 hrs at 42° C. in 5 ml MicroHyb solution (Research Genetics) containing 5 μl of 1 μg/ml poly(dA) (Research Genetics) and 5 μl of 1 μg/ml human Cot-I DNA (Gibco-BRL) that was denatured for 3 min at 100° C. prior to use. Labeled target nucleic acids, boiled for 3 min, were added directly, and hybridization was allowed to proceed for 16-18 hr at 42° C. in roller bottles in hybridization ovens. Arrays were washed twice in 2× SSC, 1% SDS at room temperature for 2 min, and then twice in 0.5× SSC, 1% SDS at 65° C. for 20 min. Arrays were exposed to storage phosphor screens for 3 days and scanned using a phosphorimager (Molecular Dynamics). Arrays were stripped for reuse by placing in boiling 0.5% SDS and then incubating for 1.5 hr with shaking at room temperature, allowing to solution to cool. After stripping, arrays were exposed to storage phosphor screens overnight to confirm loss of signal.
Spot intensities were determined using Pathways software (Research Genetics). Data from quadruplicate sets of hybridizations were normalized by local regression using NLR software (Tom Kepler, North Carolina State University). Cluster analysis was carried out using the Clustan Graphics software package from Clustan Limited (Edinburgh).

[3] = 24 hr, 20 mM APAP, 16 mM CAF, 100 mM THI

CC(=N)S [thioacetamide]
Fold change, down-regulation: EST (AA283846), clone 90-1 (HepG2 cells [1]; 24 hr treatments): 7.7 fold | Fold change, down-regulation: EST (AA805555), clone 83 (HepG2 cells [1]; 24 hr treatments): 11.1 fold | Fold change, down-regulation: EST (AI310515), clone 32-2 (HepG2 cells [1]; 24 hr treatments): 9.1 fold | Fold change, down-regulation: Lactate dehydrogenase A, clone A24-1 (HepG2 cells [1]; 24 hr treatments): 5.0 fold | Fold change, down-regulation: Pyruvate dehydrogenase E1-beta subunit, clone A123 (HepG2 cells [1]; 24 hr treatments): 12.5 fold | Fold change, down-regulation: Transforming growth factor-beta type III receptor, clone A155-6 (HepG2 cells [1]; 24 hr treatments): 3.0 fold | Fold change, up-regulation: Activating transcription factor 4, clone A108D (HepG2 cells [1]; 24 hr treatments): 3.8 fold | Fold change, up-regulation: EST (N22016), clone AI24-6 (HepG2 cells [1]; 24 hr treatments): up | Fold change, up-regulation: EST, similar to ubiquitin hydrolase, clone A130-3 (HepG2 cells [1]; 24 hr treatments): up | Dot blot expression ratio (treated/control): 90-kDa heat-shock protein, clone 23 (HepG2 cells [1]; [3]): 0.96 n | Dot blot expression ratio (treated/control): ABC transporter, clone 31-4 (HepG2 cells [1]; [3]): 0.28 | Dot blot expression ratio (treated/control): AH antigen, clone A136-1 (HepG2 cells [1]; [3]): 0.00 | Dot blot expression ratio (treated/control): Activating transcription factor 4, clone A108D (HepG2 cells [1]; [3]): 3.77 | Dot blot expression ratio (treated/control): Apolipoprotein B-100, clone A124-1 (HepG2 cells [1]; [3]): 0.76 | Dot blot expression ratio (treated/control): Atopy related autoantigen CALC, clone A182-1 (HepG2 cells [1]; [3]): 0.66 | Dot blot expression ratio (treated/control): Centromere protein E (CENPE), clone A187-5 (HepG2 cells [1]; [3]): 0.65 | Dot blot expression ratio (treated/control): Centromere protein F (400 kD) (CENPF kinetochore protein), clone A136 (HepG2 cells [1]; [3]): 1.98 | Dot blot expression ratio (treated/control): Cu/Zn superoxide dismutase (SOD), clone A94-4 (HepG2 cells [1]; [3]): 0.91 | Dot blot expression ratio (treated/control): DB1, clone A176-3 (HepG2 cells [1]; [3]): 0.36 | Dot blot expression ratio (treated/control): DNA topoisomerase II binding protein, clone A172 (HepG2 cells [1]; [3]): 0.49 | Dot blot expression ratio (treated/control): E1B 19K/Bcl-2-binding protein Nip3, clone 81-6 (HepG2 cells [1]; [3]): 0.23 c | Dot blot expression ratio (treated/control): EST (AA283846), clone 90-1 (HepG2 cells [1]; [3]): 0.13 c | Dot blot expression ratio (treated/control): EST (AA430551), clone A160-5 (HepG2 cells [1]; [3]): 0.17 | Dot blot expression ratio (treated/control): EST (AA581887), clone 102-2 (HepG2 cells [1]; [3]): 1.80 n | Dot blot expression ratio (treated/control): EST (AA581887), clone A102-1 (HepG2 cells [1]; [3]): 1.78 n | Dot blot expression ratio (treated/control): EST (AA805555), clone 83 (HepG2 cells [1]; [3]): 0.09 c | Dot blot expression ratio (treated/control): EST (AC007400), clone A95-1 (HepG2 cells [1]; [3]): 1.07 | Dot blot expression ratio (treated/control): EST (AI049999), clone A104-5 (HepG2 cells [1]; [3]): 0.89 | Dot blot expression ratio (treated/control): EST (AI310515), clone 32-2 (HepG2 cells [1]; [3]): 0.11 c | Dot blot expression ratio (treated/control): EST (N22016), clone A124-6 (HepG2 cells [1]; [3]): up | Dot blot expression ratio (treated/control): EST (N26592), clone 101 (HepG2 cells [1]; [3]): 0.26 c | Dot blot expression ratio (treated/control): EST (N39662), clone A99-1 (HepG2 cells [1]; [3]): 0.50 | Dot blot expression ratio (treated/control): EST (W44772), clone 87 (HepG2 cells [1]; [3]): 1.11 n | Dot blot expression ratio (treated/control): EST, bithoraxoid-like protein, clone A183-1 (HepG2 cells [1]; [3]): 0.42 | Dot blot expression ratio (treated/control): EST, similar to Long-chain acyl-coenzyme A synthetase, clone A105-7 (HepG2 cells [1]; [3]): 0.90 | Dot blot expression ratio (treated/control): EST, similar to Ubiquinol cytochrome C reductase core protein 2, clone 93 (HepG2 cells [1]; [3]): 0.38 c | Dot blot expression ratio (treated/control): EST, similar to arachidonate 15-lipoxygenase, clone 84 (HepG2 cells [1]; [3]): 0.75 n | Dot blot expression ratio (treated/control): EST, similar to ubiquitin hydrolase, clone A130-3 (HepG2 cells [1]; [3]): up | Dot blot expression ratio (treated/control): Esterase D/formylglutathione hydrolase, clone 24 (HepG2 cells [1]; [3]): 0.31 c | Dot blot expression ratio (treated/control): G1 to S phasetransition 1 (GSPT1), clone 103-2 (HepG2 cells [1]; [3]): 1.57 n | Dot blot expression ratio (treated/control): Glucose transporter pseudogene, clone 23-1 (HepG2 cells [1]; [3]): 0.34 | Dot blot expression ratio (treated/control): High mobility group 2 protein (HMG-2), clone A111-8 (HepG2 cells [1]; [3]): 1.12 | Dot blot expression ratio (treated/control): Human Alu-Sc subfamily consensus sequence, clone A96-4 (HepG2 cells [1]; [3]): 0.84 | Dot blot expression ratio (treated/control): Human transposon-like element mRNA, clone A135-3 (HepG2 cells [1]; [3]): 0.59 | Dot blot expression ratio (treated/control): Interleukin 6 signal transducer (gp130, oncostatin M receptor), clone 65-1 (HepG2 cells [1]; [3]): 0.96 n | Dot blot expression ratio (treated/control): Ku autoimmune antigen, clone 27-2 (HepG2 cells [1]; [3]): 0.47 c | Dot blot expression ratio (treated/control): Lactate dehydrogenase A, clone A24-1 (HepG2 cells [1]; [3]): 0.20 c | Dot blot expression ratio (treated/control): Lipoprotein-associated coagulation inhibitor, clone A94-3 (HepG2 cells [1]; [3]): 0.27 c | Dot blot expression ratio (treated/control): Liver microsomal UDP-glucuronosyltransferase (UDPGT), clone A128-7 (HepG2 cells [1]; [3]): 0.70 | Dot blot expression ratio (treated/control): Lsm5 protein, clone A115-5 (HepG2 cells [1]; [3]): 0.39 | Dot blot expression ratio (treated/control): MEGF9, clone 74 (HepG2 cells [1]; [3]): 0.96 n | Dot blot expression ratio (treated/control): Myristoyl CoA:protein N-myristoyltransferase, clone 82 (HepG2 cells [1]; [3]): 0.41 | Dot blot expression ratio (treated/control): NADH dehydrogenase subunit 2, clone A131-1 (HepG2 cells [1]; [3]): 1.45 | Dot blot expression ratio (treated/control): Nucleosome assembly protein 1-1ike 1 (NAP1L1), clone 20-2 (HepG2 cells [1]; [3]): 0.92 n | Dot blot expression ratio (treated/control): PPP1R5 gene, clone 30-5 (HepG2 cells [1]; [3]): 0.17 c | Dot blot expression ratio (treated/control): T-complex polypeptide 1, clone 21-2 (HepG2 cells [1]; [3]): 1.03 | Dot blot expression ratio (treated/control): Transforming growth factor-beta type III receptor, clone A155-6 (HepG2 cells [1]; [3]): 0.33 | Dot blot expression ratio (treated/control): cAMP-responsive enhancer binding protein, alt. spliced (CREB327), clone 98 (HepG2 cells [1]; [3]): 0.70 n | Dot blot expression ratio (treated/control): procollagen-lysine 2-oxoglutarate 5-dioxygenase 2, clone A185 (HepG2 cells [1]; [3]): 0.36 | Dot blot expression ratio (treated/control): pyruvate dehydrogenase El-beta subunit, clone A123 (HepG2 cells [1]; [3]): 0.08 | Number of 27 unconfirmed or non-matching clones showing an expression change (HepG2 cells [1]; 24 hr, two-fold threshold): 9 | Metallothionein-1H induction (HepG2 cells [2]): strongly induced | Number of genes with statistically significant (p<0.05) change in expression in three or more adjacent time points (HepG2 cells [2]; 1 to 24 hr time course, 20 mM acetaminophen, 16 mM caffeine, 100 mM thioacetamide): 215 | Global differential gene expression (rms) over time (HepG2 cells [2]; 1 to 24 hr, 20 mM acetaminophen, 16 mM caffeine, 100 mM thioacetamide): a high degree of differential expression is observed both at early and late time points | Expression ratio (treated/control), Array: MT-1B (H72722) (HepG2 cells [2]; Thioacetamide (24 hr)): 15 | Expression ratio (treated/control), Array: MT-1G (H53340) (HepG2 cells [2]; Thioacetamide (24 hr)): 15 | Expression ratio (treated/control), Array: MT-1H (H77766) (HepG2 cells [2]; Thioacetamide (24 hr)): 16 | Expression ratio (treated/control), Array: MT-1L (N80129) (HepG2 cells [2]; Thioacetamide (24 hr)): 14 | Expression ratio (treated/control), Array: MT-2 (R16596) (HepG2 cells [2]; Thioacetamide (24 hr)): 15
